From patent US12398132B2, “Derivatives of 4-(imidazo[1,2-a]pyridin-3-yl)-n-(pyridinyl)pyrimidin-2-amine as therapeutic agents” (AUCENTRA THERAPEUTICS PTY LTD, priority 2019, dated 2025)
Numbering of substitutions follows the chain as printed. Where two headings read alike, the source gives them in different places.

Key:
CDK1B [1] = target: T1, CDK1B (Homo sapiens, UniProt P06493); assay: biochemical
CDK9/CyclinT1 = CDK9/CyclinT1 (Homo sapiens, UniProt P50750); assay: ADP Glo kinase assay, CDK9/CyclinT1; assay type: biochemical; details: CDK9T1; for Ki: apparent Ki calculated from Km (ATP) and IC50, read-out: CDK inhibition Ki; for remaining activity at 10 µM: compound at 10 μM, read-out: residual enzymatic activity (%) at 10 μM
CDK9/CyclinT1, sequence (P50750 whole entry, species assumed): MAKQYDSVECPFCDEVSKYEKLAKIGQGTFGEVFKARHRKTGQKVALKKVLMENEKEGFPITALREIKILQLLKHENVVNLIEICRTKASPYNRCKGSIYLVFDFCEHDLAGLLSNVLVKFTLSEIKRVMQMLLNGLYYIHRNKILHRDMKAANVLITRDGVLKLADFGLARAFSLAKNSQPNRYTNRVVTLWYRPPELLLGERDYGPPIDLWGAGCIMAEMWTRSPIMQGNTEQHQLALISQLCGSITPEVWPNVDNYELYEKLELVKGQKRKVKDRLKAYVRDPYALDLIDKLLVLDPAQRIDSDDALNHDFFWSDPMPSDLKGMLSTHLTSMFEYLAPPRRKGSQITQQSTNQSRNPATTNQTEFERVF
CDK9/CyclinT1, sequence (O60563 whole entry partner, species assumed): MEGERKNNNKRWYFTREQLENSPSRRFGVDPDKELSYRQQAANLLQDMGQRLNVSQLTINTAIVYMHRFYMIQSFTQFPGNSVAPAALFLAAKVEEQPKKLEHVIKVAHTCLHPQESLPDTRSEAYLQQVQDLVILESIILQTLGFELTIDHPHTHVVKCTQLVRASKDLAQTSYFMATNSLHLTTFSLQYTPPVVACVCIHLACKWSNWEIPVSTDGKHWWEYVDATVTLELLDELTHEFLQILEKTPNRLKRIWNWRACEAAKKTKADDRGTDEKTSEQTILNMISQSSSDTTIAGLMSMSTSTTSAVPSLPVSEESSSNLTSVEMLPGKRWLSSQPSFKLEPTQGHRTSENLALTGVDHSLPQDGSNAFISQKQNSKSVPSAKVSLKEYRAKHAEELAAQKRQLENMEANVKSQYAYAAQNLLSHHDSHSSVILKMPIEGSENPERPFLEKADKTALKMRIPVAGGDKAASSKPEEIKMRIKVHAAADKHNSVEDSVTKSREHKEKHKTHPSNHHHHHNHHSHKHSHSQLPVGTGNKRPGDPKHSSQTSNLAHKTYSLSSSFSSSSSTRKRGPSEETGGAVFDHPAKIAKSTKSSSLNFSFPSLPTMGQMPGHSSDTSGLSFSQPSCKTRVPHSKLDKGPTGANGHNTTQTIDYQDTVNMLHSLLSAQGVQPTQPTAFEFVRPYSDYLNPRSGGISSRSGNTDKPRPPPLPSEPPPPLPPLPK
Method: (§1) Inhibition of FLT3(WT), FLT3(ITD) and FLT3(D835Y) and CDKs were determined using ADP Glo Kinase assays (Promega Corporation, Madison, WI, USA). […] Similarly, kinase reaction for CDK4/D1 and CDK6/D3 was performed with reaction buffer (40 nM Tris base pH 7.5, 20 mM MgCl2, 0.4 mM DTT), 0.1 mg/ml BSA and RB-CTF substrate (retinoblastoma protein1 C-terminal fraction). For CDK9/CyclinT1, the kinase reaction was performed with the standard assay buffer and Kinase Dilution Buffer and RBER-IRStide substrate. Half-maximal inhibition (IC50) values were calculated using a 4-parameter logistic non-linear regression model with Graphpad prism (Version 6.0). Apparent inhibition constants (Ki) values were calculated from Km (ATP) and IC50 values for the respective kinases.

CDK6/D3 = CDK6/D3 (Homo sapiens, UniProt Q00534); assay: ADP Glo kinase assay, CDK6/D3; assay type: biochemical; details: CDK6D3; for Ki: apparent Ki calculated from Km (ATP) and IC50, read-out: CDK inhibition Ki; for remaining activity at 10 µM: compound at 10 μM, read-out: residual enzymatic activity (%) at 10 μM; for remaining activity at 1 µM: compound at 1 μM (values marked *), read-out: residual enzymatic activity (%) at 1 μM*
CDK6/D3, sequence (Q00534 whole entry, species assumed): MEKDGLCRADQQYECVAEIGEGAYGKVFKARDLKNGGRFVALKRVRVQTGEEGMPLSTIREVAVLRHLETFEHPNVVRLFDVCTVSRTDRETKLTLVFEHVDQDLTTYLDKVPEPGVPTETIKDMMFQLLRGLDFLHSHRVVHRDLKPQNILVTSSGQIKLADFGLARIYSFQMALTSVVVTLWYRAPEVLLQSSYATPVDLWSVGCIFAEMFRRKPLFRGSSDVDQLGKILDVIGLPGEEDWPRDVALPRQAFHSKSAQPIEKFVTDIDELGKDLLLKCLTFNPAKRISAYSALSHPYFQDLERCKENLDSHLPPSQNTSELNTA
CDK6/D3, sequence (P30281 whole entry partner, species assumed): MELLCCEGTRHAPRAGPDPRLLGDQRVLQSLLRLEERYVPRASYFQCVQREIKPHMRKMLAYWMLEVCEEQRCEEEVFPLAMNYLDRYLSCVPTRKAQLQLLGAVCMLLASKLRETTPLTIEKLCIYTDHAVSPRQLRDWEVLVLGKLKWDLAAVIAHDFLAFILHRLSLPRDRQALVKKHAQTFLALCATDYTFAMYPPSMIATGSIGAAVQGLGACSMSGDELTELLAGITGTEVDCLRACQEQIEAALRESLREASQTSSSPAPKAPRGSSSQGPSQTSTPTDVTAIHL

CDK4/D1 = CDK4/D1 (Homo sapiens, UniProt P11802); assay: ADP Glo kinase assay, CDK4/D1; assay type: biochemical; details: CDK4D1; for Ki: apparent Ki calculated from Km (ATP) and IC50, read-out: CDK inhibition Ki; for remaining activity at 10 µM: compound at 10 μM, read-out: residual enzymatic activity (%) at 10 μM; for remaining activity at 1 µM: compound at 1 μM (values marked *), read-out: residual enzymatic activity (%) at 1 μM*
CDK4/D1, sequence (P11802 whole entry, species assumed): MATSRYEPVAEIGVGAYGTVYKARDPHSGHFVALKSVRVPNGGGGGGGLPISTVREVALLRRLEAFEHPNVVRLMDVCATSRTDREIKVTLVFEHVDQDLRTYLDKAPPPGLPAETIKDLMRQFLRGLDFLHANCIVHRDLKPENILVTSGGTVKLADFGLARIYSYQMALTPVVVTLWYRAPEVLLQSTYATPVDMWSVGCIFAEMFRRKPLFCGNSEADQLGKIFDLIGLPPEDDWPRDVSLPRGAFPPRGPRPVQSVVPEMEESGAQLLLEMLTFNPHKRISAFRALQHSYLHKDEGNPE
CDK4/D1, sequence (P24385 whole entry partner, species assumed): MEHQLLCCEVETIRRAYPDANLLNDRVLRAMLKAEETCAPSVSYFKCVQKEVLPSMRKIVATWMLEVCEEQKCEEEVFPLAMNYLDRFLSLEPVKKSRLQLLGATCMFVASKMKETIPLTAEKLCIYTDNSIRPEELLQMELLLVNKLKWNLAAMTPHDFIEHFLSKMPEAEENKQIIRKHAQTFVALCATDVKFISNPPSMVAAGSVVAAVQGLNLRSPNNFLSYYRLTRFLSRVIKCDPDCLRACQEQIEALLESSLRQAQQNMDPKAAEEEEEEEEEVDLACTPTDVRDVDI
Method: as §1

MV-4-11 = assay: Proliferation assay (resazurin/MTT), MV-4-11; assay type: cell-based; details: Homo sapiens, MV4-11, read-out: 72 h Growth inhibition GI50, MV-4-11 cells
U937 = assay: Proliferation assay (resazurin/MTT), U937; assay type: cell-based; details: Homo sapiens, U-937, read-out: 72 h Growth inhibition GI50, U937 cells
CDK2E1 = CDK2E1 (Homo sapiens, UniProt P24941)
CDK7HMAT1 [2] = target: T2, CDK7HMAT1 (Homo sapiens, UniProt P50613);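 note: kinase activity measured with an ADP-Glo luminescent kinase assay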
T2 sequence (P50613 whole entry): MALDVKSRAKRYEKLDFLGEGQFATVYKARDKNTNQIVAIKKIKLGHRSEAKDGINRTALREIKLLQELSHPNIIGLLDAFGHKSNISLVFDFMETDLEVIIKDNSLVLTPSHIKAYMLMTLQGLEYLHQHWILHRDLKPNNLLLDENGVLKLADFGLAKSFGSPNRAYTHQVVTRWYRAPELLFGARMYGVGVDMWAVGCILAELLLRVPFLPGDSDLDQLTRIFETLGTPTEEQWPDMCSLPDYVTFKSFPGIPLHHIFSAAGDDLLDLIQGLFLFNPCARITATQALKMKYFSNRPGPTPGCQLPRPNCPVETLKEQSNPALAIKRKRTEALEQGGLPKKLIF
T2 sequence (P51946 whole entry partner): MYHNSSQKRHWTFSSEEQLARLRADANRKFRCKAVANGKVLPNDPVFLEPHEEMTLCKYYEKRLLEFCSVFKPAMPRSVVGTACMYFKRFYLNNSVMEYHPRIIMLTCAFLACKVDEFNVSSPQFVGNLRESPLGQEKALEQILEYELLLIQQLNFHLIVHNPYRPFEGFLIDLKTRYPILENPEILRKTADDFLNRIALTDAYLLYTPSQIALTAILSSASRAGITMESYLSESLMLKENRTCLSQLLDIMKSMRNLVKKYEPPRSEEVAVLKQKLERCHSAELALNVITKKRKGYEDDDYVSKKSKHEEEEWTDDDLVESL
T2 sequence (P51948 whole entry partner): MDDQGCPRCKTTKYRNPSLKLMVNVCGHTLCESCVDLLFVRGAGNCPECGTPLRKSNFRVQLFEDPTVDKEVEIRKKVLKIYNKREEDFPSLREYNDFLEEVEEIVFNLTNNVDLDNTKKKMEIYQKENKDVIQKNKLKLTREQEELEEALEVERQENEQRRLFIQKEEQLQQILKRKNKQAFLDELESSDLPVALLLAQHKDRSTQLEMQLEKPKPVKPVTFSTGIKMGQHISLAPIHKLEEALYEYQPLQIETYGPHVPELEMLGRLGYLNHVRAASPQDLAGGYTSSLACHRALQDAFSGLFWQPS
Method: (§2) Inhibition of FLT3(WT), FLT3(ITD) and FLT3(D835Y) and CDKs were determined using ADP Glo Kinase assays (Promega Corporation, Madison, WI, USA). […] The kinase reactions are run for an optimised time period (FLT3-WT: 120 min, FLT3-ITD: 80 min, FLT3-D835Y: 100 min) at room temperature and then the reaction was stopped by adding 5 μL of ADP Glo reagent. […] Positive and negative controls were performed in 0.5% DMSO in the presence and absence of each FLT3 kinase, respectively. […] Half-maximal inhibition (IC50) values were calculated using a 4-parameter logistic non-linear regression model with Graphpad prism (Version 6.0). Apparent inhibition constants (Ki) values were calculated from Km (ATP) and IC50 values for the respective kinases.

FLT3(WT) = target: T3, FLT3(WT) (Homo sapiens, UniProt P36888); assay: ADP Glo kinase assay, FLT3(WT); assay type: biochemical; details: for Ki: apparent Ki calculated from Km (ATP) and IC50, read-out: FLT3 inhibition Ki
T3 sequence (P36888 27-993): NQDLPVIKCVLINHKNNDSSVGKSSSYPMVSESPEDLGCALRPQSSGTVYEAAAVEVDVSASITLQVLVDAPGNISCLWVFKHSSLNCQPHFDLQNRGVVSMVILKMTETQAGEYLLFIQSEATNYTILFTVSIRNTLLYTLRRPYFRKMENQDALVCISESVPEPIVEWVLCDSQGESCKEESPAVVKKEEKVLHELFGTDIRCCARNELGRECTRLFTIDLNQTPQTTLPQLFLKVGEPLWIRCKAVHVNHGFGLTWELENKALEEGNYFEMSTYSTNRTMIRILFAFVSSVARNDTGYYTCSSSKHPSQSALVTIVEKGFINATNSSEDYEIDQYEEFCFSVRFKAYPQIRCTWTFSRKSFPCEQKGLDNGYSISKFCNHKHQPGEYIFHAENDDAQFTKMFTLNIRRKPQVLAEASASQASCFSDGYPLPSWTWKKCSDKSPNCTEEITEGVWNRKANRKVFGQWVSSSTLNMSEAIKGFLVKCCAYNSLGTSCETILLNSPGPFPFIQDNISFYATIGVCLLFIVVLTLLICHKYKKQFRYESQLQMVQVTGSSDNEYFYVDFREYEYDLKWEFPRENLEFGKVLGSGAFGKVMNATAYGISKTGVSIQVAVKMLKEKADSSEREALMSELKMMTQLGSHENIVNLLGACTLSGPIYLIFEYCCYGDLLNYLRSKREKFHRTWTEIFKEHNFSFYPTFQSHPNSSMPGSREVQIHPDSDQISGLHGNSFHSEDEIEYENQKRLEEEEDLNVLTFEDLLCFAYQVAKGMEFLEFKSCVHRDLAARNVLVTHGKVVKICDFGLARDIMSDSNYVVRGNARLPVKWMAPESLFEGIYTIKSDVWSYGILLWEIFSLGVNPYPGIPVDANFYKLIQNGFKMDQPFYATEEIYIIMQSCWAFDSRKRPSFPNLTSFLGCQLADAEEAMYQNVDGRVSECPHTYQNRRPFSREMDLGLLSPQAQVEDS
Method: as §2

FLT3(D835Y) = target: T4, FLT3(D835Y) (Homo sapiens, UniProt P36888, D835Y); assay: ADP Glo kinase assay, FLT3(D835Y); assay type: biochemical; details: apparent Ki calculated from Km (ATP) and IC50, read-out: FLT3 inhibition Ki
T4 sequence (P36888 27-993 D835Y): T3 sequence (P36888 27-993) with D809Y
Method: as §2

CDK1B [3] = target: T1, CDK1B
FLT3(ITD) = target: T5, FLT3(ITD) (Homo sapiens, UniProt P36888); assay: ADP Glo kinase assay, FLT3(ITD); assay type: biochemical; details: apparent Ki calculated from Km (ATP) and IC50, read-out: FLT3 inhibition Ki
T5 sequence (P36888 1-993): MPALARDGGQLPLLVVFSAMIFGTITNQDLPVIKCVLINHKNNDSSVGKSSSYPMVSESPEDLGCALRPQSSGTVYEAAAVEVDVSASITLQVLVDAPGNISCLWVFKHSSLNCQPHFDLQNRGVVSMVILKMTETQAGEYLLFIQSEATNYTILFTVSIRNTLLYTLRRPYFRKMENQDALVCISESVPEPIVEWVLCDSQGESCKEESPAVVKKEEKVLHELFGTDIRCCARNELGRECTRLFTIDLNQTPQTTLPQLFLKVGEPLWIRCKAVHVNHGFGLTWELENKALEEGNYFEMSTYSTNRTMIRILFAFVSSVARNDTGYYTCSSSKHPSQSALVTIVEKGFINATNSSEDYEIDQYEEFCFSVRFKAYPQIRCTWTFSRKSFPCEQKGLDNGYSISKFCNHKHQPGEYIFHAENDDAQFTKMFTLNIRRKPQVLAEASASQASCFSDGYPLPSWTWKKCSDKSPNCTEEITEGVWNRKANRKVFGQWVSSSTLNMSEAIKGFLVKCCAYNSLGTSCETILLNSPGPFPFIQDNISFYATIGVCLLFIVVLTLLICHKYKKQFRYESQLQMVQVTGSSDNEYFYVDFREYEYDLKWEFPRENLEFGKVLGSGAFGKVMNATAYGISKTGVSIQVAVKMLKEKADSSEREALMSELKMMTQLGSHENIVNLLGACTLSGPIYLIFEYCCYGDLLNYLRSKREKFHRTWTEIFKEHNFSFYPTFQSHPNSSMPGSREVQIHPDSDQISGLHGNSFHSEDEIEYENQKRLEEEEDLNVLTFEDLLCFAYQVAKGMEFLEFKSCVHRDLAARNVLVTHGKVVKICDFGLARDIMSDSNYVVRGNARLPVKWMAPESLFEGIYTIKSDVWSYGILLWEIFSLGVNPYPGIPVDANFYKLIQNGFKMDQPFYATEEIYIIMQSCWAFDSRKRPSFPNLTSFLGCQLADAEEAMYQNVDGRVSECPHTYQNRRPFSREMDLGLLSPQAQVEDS
Method: as §2

CDK7HMAT1 [4] = target: T2, CDK7HMAT1; assay: biochemical
Method: as §2

T1 sequence (P06493 whole entry): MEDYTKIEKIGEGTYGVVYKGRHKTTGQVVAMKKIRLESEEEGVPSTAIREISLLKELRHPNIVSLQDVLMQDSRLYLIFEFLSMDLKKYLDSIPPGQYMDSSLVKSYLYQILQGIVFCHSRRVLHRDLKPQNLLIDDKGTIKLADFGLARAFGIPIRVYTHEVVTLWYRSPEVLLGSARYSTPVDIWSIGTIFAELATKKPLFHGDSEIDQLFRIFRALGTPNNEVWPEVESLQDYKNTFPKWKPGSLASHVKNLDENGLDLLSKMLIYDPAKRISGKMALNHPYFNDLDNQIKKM
T1 sequence (P14635 whole entry partner): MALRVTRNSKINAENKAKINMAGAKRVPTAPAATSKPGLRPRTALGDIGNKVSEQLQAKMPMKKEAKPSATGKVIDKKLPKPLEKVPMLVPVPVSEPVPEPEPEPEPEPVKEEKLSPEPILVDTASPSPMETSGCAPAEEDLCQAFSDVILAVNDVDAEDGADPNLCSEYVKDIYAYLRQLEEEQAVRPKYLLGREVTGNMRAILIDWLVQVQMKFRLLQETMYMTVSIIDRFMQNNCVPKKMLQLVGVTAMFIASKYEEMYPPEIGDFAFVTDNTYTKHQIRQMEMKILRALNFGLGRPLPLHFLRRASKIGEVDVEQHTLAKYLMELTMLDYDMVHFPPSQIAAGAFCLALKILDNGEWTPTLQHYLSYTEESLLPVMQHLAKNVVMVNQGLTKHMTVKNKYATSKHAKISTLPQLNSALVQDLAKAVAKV

Ki (CDK1B [1])	Ki (CDK9/CyclinT1)	Ki (CDK6/D3)	GI50 (MV-4-11)	GI50 (U937)	remaining activity at 10 µM (CDK4/D1)	activity (CDK7HMAT1 [2]; 10 µM)	activity (CDK2E1; 1 µM)	Ki (FLT3(D835Y))	Ki (FLT3(ITD))	Compound	further results
3460 nM	519 nM	> 10000 nM	20 nM	2850 nM						CC(=O)N1CCN(c2ccc(Nc3nccc(-c4cnc5ccccn45)n3)nc2)CC1 [Cmpd 3, 1-(4-(6-((4-(Imidazo[1,2-a]pyridin-3-yl)pyrimidin-2-yl)amino)pyridin-3-yl)piperazin-1-yl)ethan-1-one]	Ki (CDK4/D1): 1970 nM; activity (CDK2E1; 10 µM): 49%
1480 nM		2900 nM	38 nM	3360 nM	38%	74%	72%			c1ccn2c(-c3ccnc(Nc4ccc(N5CCOCC5)cn4)n3)cnc2c1 [Cmpd 4, 4-(Imidazo[1,2-a]pyridin-3-yl)-N-(5-morpholinopyridin-2-yl)pyrimidin-2-amine]	remaining activity at 10 µM (CDK9/CyclinT1): 28%
2450 nM	163 nM	2400 nM	6 nM	1470 nM		77%	52%			CC(=O)N1CCN(c2ccc(Nc3nccc(-c4cnc5ccc(C)cn45)n3)nc2)CC1 [Cmpd 13, 1-(4-(6-((4-(6-Methylimidazo[1,2-a]pyridin-3-yl)pyrimidin-2-yl)amino)pyridin-3-yl)piperazin-1-yl)ethan-1-one]	Ki (CDK4/D1): 419 nM
			60 nM	4040 nM	70%	66%	83%	58 nM	127 nM	CC(=O)N1CCN(c2ccc(Nc3nccc(-c4cnc5ccc(-c6cnc(N7CCN(C)CC7)nc6)cn45)n3)nc2)CC1 [Cmpd 20, 1-(4-(6-((4-(6-(2-(4-Methylpiperazin-1-yl)pyrimidin-5-yl)imidazo[1,2-a]pyridin-3-yl)pyrimidin-2-yl)amino)pyridin-3-yl)piperazin-1-yl)ethan-1-one]	remaining activity at 1 µM (FLT3(WT); compound at 1 μM, read-out: residual enzymatic activity (%) at 1 μM): 36%; remaining activity at 10 µM (CDK9/CyclinT1): 38%; activity (CDK1B [3]; 10 µM): 100%; remaining activity at 10 µM (CDK6/D3): 77%
	125 nM		25 nM	466 nM	66%		24%			CC(=O)N1CCN(c2ccc(Nc3nccc(-c4cnc5ccc(-c6cn[nH]c6)cn45)n3)nc2)CC1 [Cmpd 24, 1-(4-(6-((4-(6-(1H-Pyrazol-4-yl)imidazo[1,2-a]pyridin-3-yl)pyrimidin-2-yl)amino)pyridin-3-yl)piperazin-1-yl)ethan-1-one]	Ki (CDK7HMAT1 [4]): 1190 nM; activity (CDK1B [3]; 10 µM): 35%; remaining activity at 10 µM (CDK6/D3): 61%
	475 nM		6 nM	3570 nM			75%	18 nM	44 nM	CC(=O)N1CCN(c2ccc(Nc3nccc(-c4cnc5ccc(I)cn45)n3)nc2)CC1 [Cmpd 43, 1-(4-(6-((4-(6-Iodoimidazo[1,2-a]pyridin-3-yl)pyrimidin-2-yl)amino)pyridin-3-yl)piperazin-1-yl)ethan-1-one]	Ki (FLT3(WT)): 38 nM; activity (CDK1B [3]; 1 µM): 92%; remaining activity at 1 µM (CDK6/D3): 70%; remaining activity at 1 µM (CDK4/D1): 70%; activity (CDK7HMAT1 [2]; 1 µM): 75%
			7 nM	127 nM			74%	15 nM	180 nM	CS(=O)(=O)N1CCN(c2ccc(Nc3nccc(-c4cnc5ccc(Br)cn45)n3)nc2)CC1 [Cmpd 50, 4-(6-Bromoimidazo[1,2-a]pyridin-3-yl)-N-(5-(4-(methylsulfonyl)piperazin-1-yl)pyridin-2-yl)pyrimidin-2-amine]	Ki (FLT3(WT)): 35 nM; remaining activity at 1 µM (CDK9/CyclinT1; compound at 1 μM (values marked *), read-out: residual enzymatic activity (%) at 1 μM*): 48%; activity (CDK1B [3]; 1 µM): 62%; remaining activity at 1 µM (CDK6/D3): 63%; remaining activity at 1 µM (CDK4/D1): 40%; activity (CDK7HMAT1 [2]; 1 µM): 57%
